Data reported in ChEMBL document CHEMBL1124762, “Potential antitumor agents. 60. Relationships between structure and in vivo colon 38 activity for 5-substituted 9-oxoxanthene-4-acetic acids” (1990).

Assays:
Assay type in all cases: functional, Mus musculus
MC-38 [1] = assay: Percent necrosis activity against subcutaneous C38 colon tumor cells in vivo; range is 50-90%
MC-38 [2] = assay: Optimal dose 24 hr after intraperitoneal administration against C38 colon tumor cells in mice.
MC-38 [3] = assay: Percent necrosis activity against subcutaneous C38 colon tumor cells in vivo; parameters: concentration or dose not given beside the values

Compound	Activity (MC-38 [1])	OD (MC-38 [2])	Activity (MC-38 [3])
CCCOc1cccc2c(=O)c3cccc(CC(=O)O)c3oc12	90%	150 mg/kg	–
CCCCOc1cccc2c(=O)c3cccc(CC(=O)O)c3oc12	90%	220 mg/kg	–
CCc1cccc2c(=O)c3cccc(CC(=O)O)c3oc12	–	100 mg/kg	>90%
Nc1cccc2c(=O)c3cccc(CC(=O)O)c3oc12	90%	1125 mg/kg	–
O=C(O)Cc1cccc2c(=O)c3cccc(CC(=O)O)c3oc12	–	330 mg/kg	–
O=C(O)Cc1cccc2c(=O)c3cccc([N+](=O)[O-])c3oc12	90%	330 mg/kg	–
CCOc1cccc2c(=O)c3cccc(CC(=O)O)c3oc12	–	330 mg/kg	>90%
O=C(O)Cc1cccc2c(=O)c3cccc(C(F)(F)F)c3oc12	90%	220 mg/kg	–
CC(=O)Nc1cccc2c(=O)c3cccc(CC(=O)O)c3oc12	–	330 mg/kg	–
O=C(O)Cc1cccc2c(=O)c3cccc(Cl)c3oc12	–	150 mg/kg	>90%
O=C(O)Cc1cccc2c(=O)c3ccccc3oc12	–	220 mg/kg	>90%
O=C(O)Cc1cccc2c(=O)c3cccc(F)c3oc12	–	330 mg/kg	–
Cc1cccc2c(=O)c3cccc(CC(=O)O)c3oc12	–	45 mg/kg	>90%
O=C(O)Cc1cccc2c(=O)c3cccc(Br)c3oc12	–	100 mg/kg	–
O=C(O)Cc1cccc2c(=O)c3cccc(-c4ccccc4)c3oc12	–	750 mg/kg	–
O=C(O)Cc1cccc2c(=O)c3cccc(O)c3oc12	–	330 mg/kg	–
COc1cccc2c(=O)c3cccc(CC(=O)O)c3oc12	90%	150 mg/kg	–
O=C(O)Cc1cccc2c(=O)c3cccnc3oc12	–	750 mg/kg	–
